From patent publication EP1607399B1 (priority 2000, dated 2001)

Tested on: RPMI 8322 human melanoma cells
Format: cell-based
Conditions: read-out: µM to 50% cell viability

Question: `Cc1ccc(S(=O)(=O)NCCOP(=O)(N(CCCl)CCCl)N(CCCl)CCCl)cc1` [Compound 23] was tested. Which IC50 did it give?
Answer: Its IC50 is over 500 µM.
